In PubChem BioAssay (NCI):
Values joined by “and” are separate entries in the source; they are usually repeats but may differ in a detail not shown here. Equal entries are not always repeated.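 96-well plates; 48 h exposure; 5 concentrations. Endpoints by linear interpolation between flanking doses. Not reached: highest tested concentration assigned. The concentration for 50% growth inhibition is given as GI50. TGI: total growth inhibition.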

Experiments:
Assay in all cases: DTP human tumour cell line panel, 48 h
EKVX NSCLC = test system: EKVX NSCLC
SF-539 CNS = test system: SF-539 CNS
NCI-H460 lung = test system: NCI-H460 lung
IGROV1 ovarian = test system: IGROV1 ovarian
SR leukemia = test system: SR leukemia
BT-549 breast = test system: BT-549 breast
OVCAR-3 ovarian = test system: OVCAR-3 ovarian
SF-295 CNS = test system: SF-295 CNS
SNB-19 CNS = test system: SNB-19 CNS
ACHN renal = test system: ACHN renal

Structure (SMILES)	TGI (EKVX NSCLC)	TGI (SF-539 CNS)	TGI (NCI-H460 lung)	TGI (IGROV1 ovarian)	TGI (SR leukemia)	TGI (BT-549 breast)	TGI (OVCAR-3 ovarian)	TGI (SF-295 CNS) [µM]	TGI (SNB-19 CNS) [µM]	TGI (ACHN renal)	GI50 (EKVX NSCLC)	GI50 (SF-539 CNS)	GI50 (NCI-H460 lung)	GI50 (IGROV1 ovarian)	GI50 (SR leukemia)	GI50 (SF-295 CNS)	GI50 (BT-549 breast)	GI50 (OVCAR-3 ovarian) [µM]	GI50 (SNB-19 CNS) [µM]	GI50 (ACHN renal) [µM]
O=C(Nc1c[nH]c(=O)[nH]c1=O)Oc1ccccc1	> 100 µM	> 100 µM	> 100 µM	> 100 µM	> 100 µM	> 100 µM	> 100 µM	> 100	> 100	> 100 µM	–	–	–	–	–	–	–	–	–	–
COc1cc2c3c(c4cc(OC)c(OC)cc4c2cc1OC)CN1CCC[C@H]1C3	0.285 µM and 0.284 µM	2.94 µM and 1.12 µM	1.13 µM and 0.825 µM	1.45 µM and 1.42 µM	–	0.0849 µM and 0.657 µM	0.379 µM and 1.15 µM	–	0.184	2.37 µM and 0.393 µM	0.0216 µM and < 0.01 µM	0.0564 µM and 0.0157 µM	0.03 µM and < 0.01 µM	0.0433 µM and < 0.01 µM	0.0667 µM and 0.0102 µM	0.0357 µM and 0.01 µM	–	–	–	–
COc1ccc2c(Cl)cc(NC(=S)Nc3ccccc3)nc2c1	63.1 µM	> 100 µM	> 100 µM	54.3 µM	74.5 µM	> 100 µM	> 100 µM	> 100	46.5	> 100 µM	–	–	–	–	–	–	–	–	–	–
Cc1cnc(C(=O)Nc2nc3ccc(S(=O)(=O)Nc4ccc(C(C)(C)C)cc4)cc3[nH]2)cn1	14 µM	1.87 µM	2.02 µM	12.3 µM	12.5 µM	13.6 µM	1.32 µM	4.21	13.7	14.2 µM	0.789 µM	0.333 µM	0.37 µM	0.776 µM	0.133 µM	0.401 µM	1.12 µM	0.308	0.591	0.518
O=C1OC(c2ccccc2)=N/C1=C\c1ccccc1	> 100 µM	55.2 µM and 40.8 µM	> 100 µM	> 100 µM	73.4 µM and > 100 µM	> 100 µM	> 100 µM	> 100	> 100	> 100 µM	–	–	–	–	–	–	68.9 µM and 26.8 µM	–	–	–
N#Cc1cnn(C(=O)c2nn(-c3ccc(Cl)cc3)cc2O)c1N	10.4 µM	7.85 µM	0.507 µM	12.7 µM	0.983 µM	7.17 µM	8.44 µM	0.646	> 60.5	12.5 µM	0.378 µM	0.323 µM	0.189 µM	0.365 µM	0.278 µM	0.163 µM	0.287 µM	0.545	0.443	0.322
NP1(Oc2ccc(F)cc2)=NP(N)(Oc2ccc(F)cc2)=NP(Oc2ccc(F)cc2)(Oc2ccc(F)cc2)=N1 (centres undefined)	19 µM	27.5 µM	13.5 µM	6.31 µM	15.6 µM	7.44 µM	16 µM	15.4	22.8	12.1 µM	–	–	–	–	–	–	–	–	–	–
OC[C@H]1C[C@](O)(c2ccccc2Cl)[C@@H](c2ccccc2Cl)O1	52.2 µM	50.7 µM	49.6 µM	30.5 µM	41.3 µM	37 µM	47.5 µM	94.6	> 100	91.2 µM	19.2 µM	22.4 µM	19.8 µM	10.8 µM	16.9 µM	27.1 µM	16.9 µM	19.5	31.7	27.4
O=C(/C=C/c1ccco1)Nc1ncc(Cc2cc(Cl)ccc2Cl)s1	> 100 µM	0.191 µM	> 100 µM	> 100 µM	> 100 µM	–	0.122 µM	> 100	> 100	> 100 µM	0.161 µM	0.0373 µM	0.0392 µM	0.0807 µM	0.0385 µM	0.045 µM	0.189 µM	0.0294	0.0585	0.0664
N#Cc1ccc2c(-c3ccnc(NC4CC4)n3)c(-c3ccc(F)cc3)nn2c1	> 25 µM	> 25 µM	> 25 µM	> 25 µM	> 25 µM	> 25 µM	> 25 µM	> 25	> 25	> 25 µM	> 25 µM	> 25 µM	> 25 µM	> 25 µM	> 25 µM	> 25 µM	> 25 µM	> 25	> 25	> 25
CCOC(=O)c1c(CN2CCCCC2)nc2ccc(Cl)cc2c1-c1ccccc1	69.2 µM	66.2 µM	43.2 µM	> 100 µM	43.4 µM	> 100 µM	38.1 µM	88	48.4	35 µM	25.2 µM	26.7 µM	20 µM	24 µM	15.7 µM	31.5 µM	39.5 µM	17.7	21.8	16.9
COc1ccccc1NC(=O)c1sc2ncn(CCOc3ccccc3)c(=O)c2c1C	> 50 µM	12.2 µM	> 50 µM	> 50 µM	6.87 µM	> 50 µM	> 50 µM	> 50	> 50	> 50 µM	5.08 µM	2.77 µM	2.55 µM	1.9 µM	0.856 µM	1.69 µM	26.7 µM	2.91	> 50	6.01
